System: isolated head muscle specimen of the silkworm larva
Test: Inhibition of induced muscular contraction in the isolated head muscle specimen of the silkworm larva (pre-injection of test substance, then inducer)
Type: in vivo, silkworm (Bombyx mori) larva
Experimental: The experiment using kainic acid (0.2 mM) in place of peptideglycan was carried out as a control experiment. It has been known that kainic acid is an agonist of a glutamic acid receptor and induces the muscular contraction by strongly binding to a glutamine receptor to excessively stimulate the nerve. It has been already known that the muscular contraction induced by kainic acid is inhibited by L-glutamic acid.
The experiment using kainic acid (0.2 mM) in place of BmPP was carried out as the control experiment.
As the control experiment, 0.9% NaCl in place of the rabbit antiserum against BmPP was injected.

| SMILES | inhibition of muscular contraction induced by BmPP (L-glutamic acid 40 mM, 0.05 mL pre-injected, then BmPP (FIG. 4)) | inhibition of muscular contraction induced by kainic acid (L-glutamic acid 40 mM, 0.05 mL pre-injected, kainic acid 0.2 mM (FIG. 2)) | inhibition of muscular contraction induced by peptideglycan (L-glutamic acid 40 mM, 0.05 mL pre-injected, peptideglycan 0.5 mg/mL or 5 mg/mL, 0.05 mL (FIG. 2)) | inhibition of muscular contraction induced by β-glucan (L-glutamic acid pre-injected) | inhibition of muscular contraction induced by BmPP (N-acetylcysteine 200 mM, 0.05 mL pre-injected, 0.4 μg/mL BmPP (FIG. 6)) | inhibition of muscular contraction induced by kainic acid (N-acetylcysteine 200 mM, 0.05 mL pre-injected, 0.2 mM kainic acid (FIG. 6)) | inhibition of muscular contraction induced by air (N-acetylcysteine 200 mM, 0.05 mL pre-injected, 0.05 mL of air (FIG. 6)) | inhibition of muscular contraction induced by H2O2 (N-acetylcysteine 200 mM, 0.05 mL pre-injected, 125 mM H2O2 (FIG. 6)) | inhibition of muscular contraction induced by peptideglycan (N-acetylcysteine 200 mM, 0.05 mL pre-injected, peptideglycan = autoclaved Staphylococcus aureus (FIG. 6)) |
| --- | --- | --- | --- | --- | --- | --- | --- | --- | --- |
| N[C@@H](CCC(=O)O)C(=O)O [L-glutamic acid] | not inhibited | inhibited | not inhibited | not inhibited |  |  |  |  |  |
| CC(=O)N[C@@H](CS)C(=O)O [N-acetylcysteine] |  |  |  |  | no inhibitory effect | no inhibitory effect | inhibited | inhibited | inhibited |

— US8313779B2, “Evaluation method and screening method for substance having action of activating/suppressing innate immunity, agent and food product for activating/suppressing innate immune mechanism and method for producing the same” (Genome Pharmaceuticals Institute Co., Ltd., priority 2007, dated 2012)
